From US6673804B1, “Sulfonamide derivatives” (Sankyo Company, Limited, priority 1998, dated 2004) come the findings set out here.

The structures appear in SMILES notation.

The target in one series is aglycanase. Nature of the series: Aglycanase inhibition test (in vitro). It is filed as biochemical. The conditions noted are these: aglycanase from bovine nasal septum cartilage culture, aglycan-containing polyacrylamide particles, 37° C. for 2.5 hours. The method, then:
An aglycanase inhibition test can be conducted by, for example, measuring aglycanase activity in the presence or absence of a test compound according to the method of Nagase et al. (H. Nagase and J. F. Woessner, Analytical Biochemistry, vol. 107, 385-392, 1980).
The enzyme used for measurement of aglycanase activity can be extracted from mammalian cartilage tissue itself or from its cultured medium. Extraction is performed by combining various types of chromatography, and the activity of aglycanase in the purification process can be detected by adding substrate (aglycan) to an eluted fraction and testing whether or not the substrate is cleaved. Whether or not the substrate is cleaved can be determined by performing imnunoblotting for the reaction liquid using an antibody that binds to the epitope, CNLeNIEGE, that is produced by cleavage of aglycan (substrate) by aglycanase (enzyme). It should be noted that antibody that binds to CNLeNIEGE can be prepared according to the method of Sandy et al. (J. D. Sandy et al., Journal of Biological Chemistry, vol. 270, 2550-2556, 1995).
Bovine nasal septum cartilage was cultured for 7 days at 37° C. in the presence of 1 μm retinoic acid in DMEM [containing 20 mM N-2-hydroxyethyl-piperazine-N′-2-ethane sulfonic acid (HEPES), 0.005% bovine serum albumin (BSA), 5 μg/ml insulin-transferrin sodium selenite media supplement, 1% penicillin and 1% streptomycin] while changing the medium once a day. The culture liquid collected from day 3 to day 7 was subjected to chromatography [carrier: Q-sepharose (Pharmacia), mobile phase: 20 mM Tris-HCl buffer (pH 7.2) containing 5 mM calcium chloride] and the fraction that passed through the column was collected. This was then subjected to additional chromatography [carrier: Zn-chelating sepharose (Pharmacia), mobile phase: Tris-HCl buffer (pH 7.2) containing 5 mM calcium chloride and 0.5 M sodium chloride], followed by elution using imidazole as the mobile phase. The fraction of the resulting eluted fractions that was confirmed to have aglycanase activity was collected. Moreover, this was subjected to additional chromatography [carrier: LCA-agarose (Honen Corporation), mobile phase: 20 mM aqueous solution of 2-(N-morpholino)ethanesulfonic acid (pH 6.5) containing 5 mM calcium chloride and 0.25 M sodium chloride], followed by elution using 2-methylmannopyranoside as the mobile phase. The fraction of the resulting eluted fractions that was confirmed to have aglycanase activity was collected, and this fraction was used as the enzyme liquid for measurement of aglycanase activity.
Separate from the above, antibody that binds with CNLeNIEGE was prepared according to the method of Sandy et al. (J. D. Sandy et al., Journal of Biological Chemistry, vol. 270, 2550-2556, 1995), and this antibody was used in immunoblotting to detect aglycanase activity in the above-mentioned purification process of the aglycanase. Immunoblotting was performed in accordance with conventional methods.
Measurement of activity was performed using a modification of the protease activity measurement method that uses polyacrylamide particles of Nagase et al. (H. Nagase and J. F. Woessner, Analytical Biochemistry, vol. 107, 385-392, 1980).
The aglycan used for the substrate was isolated from bovine nasal septum cartilage in accordance with cesium chloride sedimentation equilibrium centrifugation (New Biochemical Experimentation Course, 3, Saccharides II, 4-7, Tokyo Kagaku Dojin Publishing, 1991). By using this aglycan, polyacrylamide particles containing aglycan were prepared in accordance with the method of Nagase et al. (H. Nagase and J. F. Woessner, Analytical Biochemistry, vol. 107, 385-392, 1980). Namely, aglycan (dry weight: 480 mg) was first added to 28 ml of liquid A [1 M Tris-HCl buffer (pH 8.5) containing 0.2% N,N,N′,N′-tetramethylethylenediamine (TEMED)] and the mixture was stirred at 4° C. for 1 hour. […]

The target in a further series is T1, MMP-13 (Homo sapiens, UniProt P45452).
T1 construct: made in house; host or cells: COS-1 cells (vector pcDL-SRα296, culture supernatant)
In words: MMP-13 inhibition test (in vitro). Format: biochemical. Conditions: recombinant active MMP-13, fluorescent substrate 20 μM, 1 hour at 37° C. The text has this: MMP-13 exists in chondrocytes and chondrosarcoma cells, and the DNA sequence corresponding to the amino acid sequence of its precursor (proMMP-13) has been reported by Freije et al. (Freije, J. M. P., et al., J. Biol. Chem., vol. 269, 16766-16773, 1994). Therefore, proMMP-13 can be expressed by acquiring cDNA of proMMP-13 from chondrocytes and chondrosarcoma cells in accordance with conventional methods, by incorporating this into an ordinarily used vector, and by introducing this vector into suitable cells to transform the cells.
An MMP-13 inhibition test can be conducted by, for example, treating recombinant proMMP-13 obtained in the above manner with p-aminophenyl-mercuric(II) acetate (APMA) to convert proMMP-13 to active MMP-13, and then using this as enzyme to measure MMP-13 activity in the presence or absence of a test compound using a fluorescent substrate.
mRNA was isolated from human chondrosarcoma HCS-2/8, which is a chondrosarcoma cell line established by Takigawa et al. (Jpn. J. Cancer. Res., vol. 85, 364-371, 1994), in accordance with conventional methods, and cDNA of proMMP-13 was acquired by reverse transcription polymerase chain reaction (RT-PCR). 5′-[…]-3′ (Sequence No. 1 of the Sequence listing) and 5′-[…]-3′ (Sequence No. 2 of the Sequence listing), which contain the restriction enzyme cleavage site sacI or KpnI (portions indicated by underlining) were used for primers. […]
This enzyme solution and substrate (20 μM) were added to 50 mM Tris-HCl buffer (pH 7.5) containing 0.15 M sodium chloride, 10 mM calcium chloride, 0.05% Brij 35 and 0.02% sodium azide to bring the final volume to 0.1 ml, followed by reacting for 1 hour at 37° C. After stopping the reaction by adding 0.1 ml of 3% acetic acid, enzyme activity was determined by measuring with a fluorophotometer (Labsystems Fluoroskan II) at an excitation wavelength of 330 nm and emission wavelength of 390 nm. […]

With `CN([C@H](CCN1C(=O)c2ccccc2C1=O)C(=O)NO)S(=O)(=O)c1ccc(Oc2cccc(Cl)c2)cc1` [Example 141, Nα-[4-(3-Chlorophenoxy)benzenesulfonyl]-N-hydroxy-Nα-methyl-2(R)-(2-phthalimidoethyl)glycinamide], the IC50 on aglycanase turned out to be 2.9 nM.

Take `CN(C(CCN1C(=O)c2cc(Cl)c(Cl)cc2C1=O)C(=O)NO)S(=O)(=O)c1ccc(Oc2ccccc2)cc1` (racemic) [Example 84, (±)-2-[2-(4,5-Dichlorophthalimido)ethyl]-N-hydroxy-Nα-methyl-Nα-(4-phenoxybenzenesulfonyl)glycinamide]: the melting point was 155 to 156 °C.

`Cc1ccc2c(c1)C(=O)N(CCC(C(=O)NO)N(C)S(=O)(=O)c1ccc(Oc3ccccc3)cc1)C2=O` (racemic) [Example 86, (±)-N-Hydroxy-Nα-methyl-2-[2-(4-methylphthalimido)ethyl]-Nα-(4-phenoxybenzenesulfonyl)glycinamide] gave a melting point of 157 to 158 °C.

Take `CN([C@H](CCn1c(=O)[nH]c2ccsc2c1=O)C(=O)NO)S(=O)(=O)c1ccc(Oc2cccc(Cl)c2)cc1` [Example 140, Nα-[4-(3-Chlorophenoxy)benzenesulfonyl]-N-hydroxy-Nα-methyl-2(R)-[2-(thieno[3,2-d]pyrimidin-2,4-dione-3-yl)ethyl]glycinamide]: the half-maximal inhibitory concentration (IC50) amounted to 0.32 nM on MMP-13 and 2.2 nM on aglycanase.

In the case of `CN([C@H](CCn1c(=O)[nH]c2ccccc2c1=O)C(=O)NO)S(=O)(=O)c1ccc(Oc2cccc(Cl)c2)cc1` [Example 139, Nα-[4-(3-Chlorophenoxy)benzenesulfonyl]-N-hydroxy-Nα-methyl-2(R)-[2-(quinazolin-2,4-dione-3-yl)ethyl]glycinamide], the IC50 at MMP-13 came out at 0.43 nM; against aglycanase, 3.7 nM.

As for `Cc1[nH]c(=O)n(CCC(C(=O)NO)N(C)S(=O)(=O)c2ccc(Oc3ccccc3)cc2)c(=O)c1C` (racemic) [Example 18, (±)-2-[2-(5,6-Dimethylpyrimidin-2,4-dione-3-yl)ethyl]-N-hydroxy-Nα-methyl-Nα-(4-phenoxybenzenesulfonyl)glycinamide], the IC50 against aglycanase stood at 7.6 nM.

The compound `CN([C@H](CCN1C(=O)c2ccccc2C1=O)C(=O)NO)S(=O)(=O)c1ccc(Oc2ccccc2)cc1` [Example 72, N-Hydroxy-Nα-methyl-Nα-(4-phenoxybenzensulfonyl)-2(R)-(2-phthalimidoethyl)glycinamide] gave an IC50 on aglycanase of 4.9 nM.

On aglycanase, `CN(C(CCn1c(=O)[nH]c2ccccc2c1=O)C(=O)NO)S(=O)(=O)c1ccc(Oc2ccccc2)cc1` (racemic) [Example 6, (±)-N-Hydroxy-Nα-methyl-Nα-(4-phenoxybenzenesulfonyl)-2-[2-(quinazolin-2,4-dione-3-yl)ethyl]glycinamide] showed an IC50 of 7 nM.

On to `CN(C(CCn1c(=O)[nH]c2ccsc2c1=O)C(=O)NO)S(=O)(=O)c1ccc(Oc2ccccc2)cc1` (racemic) [Example 42, (±)-N-Hydroxy-Nα-methyl-Nα-(4-phenoxybenzensulfonyl)-2-[2-(thieno[3,2-d]pyrimidin-2,4-dione-3-yl)ethyl]glycinamide], for which the IC50 is 0.47 nM at MMP-13 and 5.4 nM on aglycanase.
